The target in one assay is human JAK2 (Homo sapiens (Human), UniProt O60674). The note with it: read-out: JAK2 IC50.
A further assay addresses human FAK (Homo sapiens (Human), UniProt Q05397). The note with it: read-out: FAK IC50.

human JAK2, sequence (O60674 815-1132): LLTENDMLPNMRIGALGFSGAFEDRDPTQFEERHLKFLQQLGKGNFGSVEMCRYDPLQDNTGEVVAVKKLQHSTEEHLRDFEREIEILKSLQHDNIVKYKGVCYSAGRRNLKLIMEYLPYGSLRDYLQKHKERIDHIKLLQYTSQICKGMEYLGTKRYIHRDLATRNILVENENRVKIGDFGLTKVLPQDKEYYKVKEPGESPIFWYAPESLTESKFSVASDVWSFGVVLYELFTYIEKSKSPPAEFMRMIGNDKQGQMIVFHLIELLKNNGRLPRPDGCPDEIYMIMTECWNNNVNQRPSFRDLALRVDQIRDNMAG
human FAK, sequence (Q05397 whole entry): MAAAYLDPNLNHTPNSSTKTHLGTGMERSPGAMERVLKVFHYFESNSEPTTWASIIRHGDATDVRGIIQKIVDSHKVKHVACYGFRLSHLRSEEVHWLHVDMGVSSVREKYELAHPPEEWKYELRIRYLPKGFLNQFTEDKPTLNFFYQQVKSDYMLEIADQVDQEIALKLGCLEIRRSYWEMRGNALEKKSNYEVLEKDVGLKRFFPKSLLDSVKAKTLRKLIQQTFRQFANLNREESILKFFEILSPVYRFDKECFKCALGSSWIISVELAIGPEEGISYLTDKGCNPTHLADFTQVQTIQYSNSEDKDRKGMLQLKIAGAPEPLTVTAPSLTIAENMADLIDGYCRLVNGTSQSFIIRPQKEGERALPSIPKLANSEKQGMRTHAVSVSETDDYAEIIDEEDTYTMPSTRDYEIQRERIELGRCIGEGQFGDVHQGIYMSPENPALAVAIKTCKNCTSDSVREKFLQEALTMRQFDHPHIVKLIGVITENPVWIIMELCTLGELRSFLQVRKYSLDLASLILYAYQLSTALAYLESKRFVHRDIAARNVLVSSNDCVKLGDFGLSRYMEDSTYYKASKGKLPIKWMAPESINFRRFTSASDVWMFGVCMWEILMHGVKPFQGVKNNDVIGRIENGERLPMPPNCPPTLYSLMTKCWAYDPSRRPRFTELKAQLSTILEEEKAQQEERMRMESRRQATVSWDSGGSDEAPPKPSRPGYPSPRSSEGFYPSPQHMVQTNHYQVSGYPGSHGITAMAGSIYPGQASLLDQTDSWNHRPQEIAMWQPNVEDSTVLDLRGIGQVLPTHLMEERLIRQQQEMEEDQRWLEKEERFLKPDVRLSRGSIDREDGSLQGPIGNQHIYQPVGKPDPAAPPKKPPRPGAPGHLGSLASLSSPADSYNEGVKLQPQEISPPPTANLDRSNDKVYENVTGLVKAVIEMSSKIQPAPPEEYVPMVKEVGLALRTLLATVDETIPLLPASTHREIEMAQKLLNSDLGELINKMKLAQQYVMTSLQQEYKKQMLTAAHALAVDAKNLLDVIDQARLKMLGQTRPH

In the case of `CN(c1ccccc1CNc1cccn2nc(Nc3ccccc3)nc12)S(C)(=O)=O` [Example 202, N-Methyl-N-{2-[(2-phenylamino-[1,2,4]triazolo[1,5-a]pyridin-8-ylamino)-methyl]-phenyl}-methanesulfonamide], the half-maximal inhibitory concentration (IC50) on human JAK2 stood at 571 nM; at human FAK, 189 nM.
Regarding `CN1CCC(c2ccc(Nc3nc4c(NCc5cccnc5N(C)S(C)(=O)=O)cccn4n3)cc2)CC1` [Example 123, N-Methyl-N-[3-({2-[4-(1-methyl-piperidin-4-yl)-phenylamino]-[1,2,4]triazolo[1,5-a]pyridin-8-ylamino}-methyl)-pyridin-2-yl]-methanesulfonamide], the IC50 was determined as 40.3 nM at human JAK2 and 77.3 nM at human FAK.
In the same order, the values of `COc1cccc(CNc2cccn3nc(Nc4cccnc4)nc23)c1` [Example 398, N(8)-(3-Methoxy-benzyl)-N(2)-pyridin-3-yl-[1,2,4]triazolo[1,5-a]pyridine-2,8-diamine] are 816 nM and 10000 nM.
Take `CN1CCN(c2cccc(Nc3nc4c(NCc5ccccc5S(C)(=O)=O)cccn4n3)c2)CC1` [Example 139, N(8)-(2-Methanesulfonyl-benzyl)-N(2)-[3-(4-methyl-piperazin-1-yl)-phenyl]-[1,2,4]triazolo[1,5-a]pyridine-2,8-diamine]: the IC50 was determined as 26.3 nM at human JAK2 and 200 nM on human FAK.
Taken in the same sequence, the figures for `CN1CCN(c2cccc(Nc3nc4c(-c5ccc(S(C)(=O)=O)cc5)cccn4n3)c2)CC1` [Example 35, [8-(4-Methanesulfonyl-phenyl)-[1,2,4]triazolo[1,5-a]pyridin-2-yl]-[3-(4-methyl-piperazin-1-yl)-phenyl]-amine] were 1.3 nM and 1060 nM.
Taken in the same sequence, the figures for `CN1CCN(Cc2cccc(Nc3nc4cccc(-c5ccc(S(C)(=O)=O)cc5)n4n3)c2)CC1` [Example 118, [5-(4-Methanesulfonyl-phenyl)-[1,2,4]triazolo[1,5-a]pyridin-2-yl]-[3-(4-methyl-piperazin-1-ylmethyl)-phenyl]-amine] were 1.43 nM and 2860 nM.
Taken in the same sequence, the figures for `CS(=O)(=O)c1ccccc1Nc1cccn2nc(Nc3ccc(OCCN4CCCC4)cc3)nc12` [Example 126, N(8)-(2-Methanesulfonyl-phenyl)-N(2)-[4-(2-pyrrolidin-1-yl-ethoxy)-phenyl]-[1,2,4]triazolo[1,5-a]pyridine-2,8-diamine] were 14.3 nM and 1300 nM.
With `CN(Cc1cccc(-c2cccn3nc(Nc4ccc(OCCN5CCCC5)cc4)nc23)c1)S(C)(=O)=O` [Example 177, N-Methyl-N-(3-{2-[4-(2-pyrrolidin-1-yl-ethoxy)-phenylamino]-[1,2,4]triazolo[1,5-a]pyridin-8-yl}-benzyl)-methanesulfonamide], the half-inhibitory concentration (IC50) on human JAK2 turned out to be 7.34 nM; on human FAK, 3000 nM.
Regarding `COc1ncccc1-c1cccn2nc(Nc3ccc(C4CCN(CC(=O)N(C)C)CC4)cc3)nc12` [Example 273, 2-(4-{4-[8-(2-Methoxy-pyridin-3-yl)-[1,2,4]triazolo[1,5-a]pyridine-2-ylamino]-phenyl}-piperidin-1-yl)-N,N-dimethyl-acetamide], the half-maximal inhibitory concentration (IC50) on human JAK2 was found to be 251 nM; at human FAK, 999 nM.
Consider `CS(=O)(=O)c1ccc(Oc2cccn3nc(Nc4cnn(CCN5CCCC5)c4)nc23)cc1` [Example 217, [8-(4-Methanesulfonyl-phenoxy)-[1,2,4]triazolo[1,5-a]pyridin-2-yl]-(1-(2-pyrrolidin-1-yl-ethyl)-1H-pyrazol-4-yl]-amine], for which the half-inhibitory concentration (IC50) came to 3000 nM on human JAK2 and 1220 nM at human FAK.
In the same order, the values of `CN1CCN(c2cccc(Nc3nc4cccc(-c5ccc(CN6CCS(=O)(=O)CC6)cc5)n4n3)c2)CC1` [Example 71, 5-{4-[(1,1-dioxidothiomorpholin-4-yl)methyl]phenyl}-N-[3-(4-methylpiperazin-1-yl)phenyl][1,2,4]triazolo[1,5-a]pyridin-2-amine] are 0.8 nM and 502 nM.
Taken in the same sequence, the figures for `COCc1ccccc1-c1cccc2nc(Nc3ccc4c(c3)CCN(CC(=O)N(C)C)CC4)nn12` [Example 229, 2-{7-[5-(2-Methoxymethyl-phenyl)-[1,2,4]triazolo[1,5-a]pyridin-2-ylamino]-1,2,4,5-tetrahydro-benzo[d]azepin-3-yl}-N,N-dimethyl-acetamide] were 47.4 nM and 3000 nM.
Taken in the same sequence, the figures for `CN1CCN(c2cccc(Nc3nc4c(-c5ccc(P(C)(C)=O)cc5)cccn4n3)c2)CC1` [Example 198, {8-[4-(Dimethyl-phosphinoyl)-phenyl]-[1,2,4]triazolo[1,5-a]pyridin-2-yl}-[3-(4-methyl-piperazin-1-yl)-phenyl]-amine] were 1.73 nM and 10000 nM.
For `CN1CCN(c2cccc(Nc3nc4c(NCc5ccccc5CN(C)S(C)(=O)=O)cccn4n3)c2)CC1` [Example 157, N-Methyl-N-[2-({2-[3-(4-methyl-piperazin-1-yl)-phenylamino]-[1,2,4]triazolo[1,5-a]pyridin-8-ylamino}-methyl)-benzyl]-methanesulfonamide], the values for the IC50 at human JAK2 and at human FAK were 220 nM and 300 nM, respectively.
In the same order, the values of `CN1CCN(c2cncc(Nc3nc4c(-c5ccc(S(C)(=O)=O)cc5)cccn4n3)n2)CC1` [Example 386, [8-(4-Methanesulfonyl-phenyl)-[1,2,4]triazolo[1,5-a]pyridin-2-yl]-(4-methyl-3,4,5,6-tetrahydro-2H-[1,2′]bipyrazinyl-6′-yl)-amine] are 29.9 nM and 10000 nM.
Taken in the same sequence, the figures for `CN1CCN(c2cccc(Nc3nc4c(NCc5cccnc5N(C)S(C)(=O)=O)cccn4n3)c2)CC1` [Example 136, N-Methyl-N-[3-({2-[3-(4-methyl-piperazin-1-yl)-phenylamino]-[1,2,4]triazolo[1,5-a]pyridin-8-ylamino}-methyl)-pyridin-2-yl]-methanesulfonamide] were 77.2 nM and 71.1 nM.
In the same order, the values of `COc1ccccc1CNc1cccn2nc(Nc3ccc(C)nc3)nc12` [Example 403, N(8)-(2-Methoxy-benzyl)-N(2)-(6-methyl-pyridin-3-yl)-[1,2,4]triazolo[1,5-a]pyridine-2,8-diamine] are 27.6 nM and 1880 nM.
For the molecule `CN1CCN(c2ccc(Nc3nc4c(-c5cccc(CN(C)S(C)(=O)=O)c5)cccn4n3)cc2)CC1` [Example 175, N-Methyl-N-(3-{2-[4-(4-methyl-piperazin-1-yl)-phenylamino]-[1,2,4]triazolo[1,5-a]pyridin-8-yl}-benzyl)-methanesulfonamide], the half-inhibitory concentration (IC50) worked out at 7.95 nM on human JAK2 and 3000 nM on human FAK.
On to `COc1ccc(CNc2cccn3nc(Nc4cccc(N5CCN(C)CC5)c4)nc23)cc1` [Example 393, N(8)-(4-Methoxy-benzyl)-N(2)-[3-(4-methyl-piperazin-1-yl)-phenyl]-[1,2,4]triazolo[1,5-a]pyridine-2,8-diamine], for which the concentration for half-maximal inhibition (IC50) on human JAK2 and on human FAK was 10000 nM throughout.
`CS(=O)(=O)c1ccc(-c2cccn3nc(Nc4cccc(C5CCN(CC(N)=O)CC5)c4)nc23)cc1` [Example 184, 2-(4-{3-[8-(4-Methanesulfonyl-phenyl)-[1,2,4]triazolo[1,5-a]pyridin-2-ylamino]-phenyl}-piperidin-1-yl)-acetamide]: the half-inhibitory concentration (IC50) at human JAK2 was found to be 0.41 nM; at human FAK, 384 nM.
In the same order, the values of `CN1CCN(c2ccc(Nc3nc4c(C#Cc5ccccc5N(C)S(C)(=O)=O)cccn4n3)cc2)CC1` [Example 189, N-Methyl-N-(2-{2-[4-(4-methyl-piperazin-1-yl)-phenylamino]-[1,2,4]triazolo[1,5-a]pyridin-8-ylethynyl}-phenyl)-methanesulfonamide] are 2.61 nM and 522 nM.
In the case of `CN1CCN(c2ccc(Nc3nc4c(NCc5cccnc5)cccn4n3)cc2)CC1` [Example 151, N(2)-[4-(4-Methyl-piperazin-1-yl)-phenyl]-N(8)-pyridin-3-ylmethyl-[1,2,4]triazolo[1,5-a]pyridine-2,8-diamine], the IC50 on human JAK2 was determined as 488 nM; on human FAK it was 6500 nM.
In the same order, the values of `c1cncc(-c2cccn3nc(Nc4ccc(N5CCOCC5)cc4)nc23)c1` [Example 6, (4-Morpholin-4-yl-phenyl)-(8-pyridin-3-yl-[1,2,4]triazolo[1,5-a]pyridin-2-yl)-amine] are 25.9 nM and 3000 nM.
In the same order, the values of `CN(C)C(=O)CN1CCc2ccc(Nc3nc4c(-c5ccccc5OCC(F)F)cccn4n3)cc2CC1` [Example 368, 2-(7-{8-[2-(2,2-Difluoro-ethoxy)-phenyl]-[1,2,4]triazolo[1,5-a]pyridin-2-ylamino}-1,2,4,5-tetrahydro-3-benzazepin-3-yl)-N,N-dimethyl-acetamide] are 197 nM and 2430 nM.
On to `CN1CCN(c2cccc(Nc3nc4c(-c5ccc(F)cc5)cccn4n3)c2)CC1` [Example 365, [8-(4-Fluoro-phenyl)-[1,2,4]-triazolo[1,5-a]pyridin-2-yl]-[3-(4-methyl-piperazin-1-yl)-phenyl]-amine], for which the figures for the half-maximal inhibitory concentration (IC50) on human JAK2 and on human FAK were 29.1 nM and 999 nM, respectively.
Taken in the same sequence, the figures for `CN(c1ncccc1CNc1cccn2nc(Nc3ccc(S(C)(=O)=O)cc3)nc12)S(C)(=O)=O` [Example 134, N-(3-{[2-(4-Methanesulfonyl-phenylamino)-[1,2,4]triazolo[1,5-a]pyridin-8-ylamino]-methyl}-pyridin-2-yl)-N-methyl-methanesulfonamide] were 17.3 nM and 752 nM.
In the same order, the values of `COc1ncccc1-c1cccn2nc(Nc3ccc(C4CCNCC4)cc3)nc12` [Example 272] are 377 nM and 10000 nM.
In the same order, the values of `c1cc(-c2ccncc2)c2nc(Nc3ccc(N4CCOCC4)cc3)nn2c1` [Example 11, (4-Morpholin-4-yl-phenyl)-(8-pyridin-4-yl-[1,2,4]triazolo[1,5-a]pyridin-2-yl)-amine] are 5.5 nM and 6500 nM.

What is called IC50 is the concentration that inhibits the measured activity by half.

The values above are taken from patent US8501936B2 (priority 2009, dated 2013).
